Measured values published in article PMC7162861, “Synthesis, cytotoxicity, pharmacokinetic profile, binding with DNA and BSA of new imidazo[1,2-a]pyrazine-benzo[d]imidazol-5-yl hybrids” (Scientific Reports, 2020).

Legend:
RXF 393 = test: NCI cytotoxicity screen, Renal Cancer panel; format: cell-based; settings: Homo sapiens, single dose 10 µM, negative = lethal, read-out: Percent growth inhibition
Method: (§1) Cytotoxicity was performed at National Cancer Institute (NCI), Bethesda, USA as per their protocols.

SN12C = test: NCI cytotoxicity screen, Renal Cancer panel; format: cell-based; settings: Homo sapiens, single dose 10 µM, negative = lethal, read-out: Percent growth inhibition
Method: as §1

UO-31 = test: NCI cytotoxicity screen, Renal Cancer panel; format: cell-based; settings: Homo sapiens, single dose 10 µM, negative = lethal, read-out: Percent growth inhibition
Method: as §1

ACHN = test: NCI cytotoxicity screen, Renal Cancer panel; format: cell-based; settings: Homo sapiens, single dose 10 µM, negative = lethal, read-out: Percent growth inhibition
Method: as §1

A498 = test: NCI cytotoxicity screen, Renal Cancer panel; format: cell-based; settings: Homo sapiens, single dose 10 µM, negative = lethal, read-out: Percent growth inhibition
Method: as §1

CAKI-1 = test: NCI cytotoxicity screen, Renal Cancer panel; format: cell-based; settings: Homo sapiens; CAKI-1; single dose 10 µM; negative = lethal; read-out: Percent growth inhibition
Method: as §1

HT29 = test: NCI cytotoxicity screen, Colon Cancer panel; format: cell-based; settings: Homo sapiens, HT-29; HT29; single dose 10 µM; negative = lethal; read-out: Percent growth inhibition
Method: as §1

COLO 205 = test: NCI cytotoxicity screen, Colon Cancer panel; format: cell-based; settings: Homo sapiens, single dose 10 µM, negative = lethal, read-out: Percent growth inhibition
Method: as §1

HCT-116 = test: NCI cytotoxicity screen, Colon Cancer panel; format: cell-based; settings: Homo sapiens, single dose 10 µM, negative = lethal, read-out: Percent growth inhibition
Method: as §1

HCT-15 = test: NCI cytotoxicity screen, Colon Cancer panel; format: cell-based; settings: Homo sapiens, single dose 10 µM, negative = lethal, read-out: Percent growth inhibition
Method: as §1

[1] = Experimental log P, shake-flask method; format: physicochemical; settings: n-octanol/phosphate buffer pH 7.4, read-out: Exp. Log P
How it was run: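 Shake-flask partitioning between n-octanol and phosphate buffer pH 7.4, shaken 50 min, then centrifuged 35 min at 2500 rpm. Buffer-phase absorbance at each compound's λmax measured before and after partitioning. P calculated from absorbance drop and phase volume ratio.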

MCF7 = test: NCI cytotoxicity screen, Breast Cancer panel; format: cell-based; settings: Homo sapiens, single dose 10 µM, negative = lethal, read-out: Percent growth inhibition
Method: as §1

BT-549 = test: NCI cytotoxicity screen, Breast Cancer panel; format: cell-based; settings: Homo sapiens, single dose 10 µM, negative = lethal, read-out: Percent growth inhibition
Method: as §1

MDA-MB-468 = test: NCI cytotoxicity screen, Breast Cancer panel; format: cell-based; settings: Homo sapiens, single dose 10 µM, negative = lethal, read-out: Percent growth inhibition
Method: as §1

T-47D = test: NCI cytotoxicity screen, Breast Cancer panel; format: cell-based; settings: Homo sapiens, T47D, T-47D; single dose 10 µM; negative = lethal; read-out: Percent growth inhibition
Method: as §1

MDA-MB-231/ATCC = test: NCI cytotoxicity screen, Breast Cancer panel; format: cell-based; settings: Homo sapiens, MDA-MB-231, read-out: Percent growth inhibition
Method: as §1

HS 578 T = test: NCI cytotoxicity screen, Breast Cancer panel; format: cell-based; settings: Homo sapiens; HS 578T; single dose 10 µM; negative = lethal; read-out: Percent growth inhibition
Method: as §1

NCI/ADR-RES = test: NCI cytotoxicity screen, Ovarian Cancer panel; format: cell-based; settings: Homo sapiens, single dose 10 µM, negative = lethal, read-out: Percent growth inhibition
Method: as §1

OVCAR-5 = test: NCI cytotoxicity screen, Ovarian Cancer panel; format: cell-based; settings: Homo sapiens, single dose 10 µM, negative = lethal, read-out: Percent growth inhibition
Method: as §1

OVCAR-8 = test: NCI cytotoxicity screen, Ovarian Cancer panel; format: cell-based; settings: Homo sapiens, single dose 10 µM, negative = lethal, read-out: Percent growth inhibition
Method: as §1

SK-OV-3 = test: NCI cytotoxicity screen, Ovarian Cancer panel; format: cell-based; settings: Homo sapiens, single dose 10 µM, negative = lethal, read-out: Percent growth inhibition
Method: as §1

IGROV1 = test: NCI cytotoxicity screen, Ovarian Cancer panel; format: cell-based; settings: Homo sapiens, IGROV-1, single dose 10 µM, negative = lethal, read-out: Percent growth inhibition
Method: as §1

OVCAR-4 = test: NCI cytotoxicity screen, Ovarian Cancer panel; format: cell-based; settings: Homo sapiens; OVCAR-4; single dose 10 µM; negative = lethal; read-out: Percent growth inhibition
Method: as §1

UACC-257 = test: NCI cytotoxicity screen, Melanoma panel; format: cell-based; settings: Homo sapiens, single dose 10 µM, negative = lethal, read-out: Percent growth inhibition
Method: as §1

MALME-3M = test: NCI cytotoxicity screen, Melanoma panel; format: cell-based; settings: Homo sapiens; MALME-3M; single dose 10 µM; negative = lethal; read-out: Percent growth inhibition
Method: as §1

SK-MEL-28 = test: NCI cytotoxicity screen, Melanoma panel; format: cell-based; settings: Homo sapiens, single dose 10 µM, negative = lethal, read-out: Percent growth inhibition
Method: as §1

SK-MEL-5 = test: NCI cytotoxicity screen, Melanoma panel; format: cell-based; settings: Homo sapiens, single dose 10 µM, negative = lethal, read-out: Percent growth inhibition
Method: as §1

SK-MEL-2 = test: NCI cytotoxicity screen, Melanoma panel; format: cell-based; settings: Homo sapiens, single dose 10 µM, negative = lethal, read-out: Percent growth inhibition
Method: as §1

MDA-MB-435 = test: NCI cytotoxicity screen, Melanoma panel; format: cell-based; settings: Homo sapiens, MDA-MB-435, read-out: Percent growth inhibition
Method: as §1

DU-145 = test: NCI cytotoxicity screen, Prostate Cancer panel; format: cell-based, human; settings: Homo sapiens, single dose 10 µM, negative = lethal, read-out: Percent growth inhibition
Method: as §1

PC-3 = test: NCI cytotoxicity screen, Prostate Cancer panel; format: cell-based, human; settings: Homo sapiens, single dose 10 µM, negative = lethal, read-out: Percent growth inhibition
Method: as §1

M14 = test: NCI cytotoxicity screen, Melanoma panel; format: cell-based, human; settings: Homo sapiens, single dose 10 µM, negative = lethal, read-out: Percent growth inhibition
Method: as §1

UACC-62 = test: NCI cytotoxicity screen, Melanoma panel; format: cell-based, human; settings: Homo sapiens, single dose 10 µM, negative = lethal, read-out: Percent growth inhibition
Method: as §1

LOX IMVI = test: NCI cytotoxicity screen, Melanoma panel; format: cell-based, human; settings: Homo sapiens, single dose 10 µM, negative = lethal, read-out: Percent growth inhibition
Method: as §1

NCI-H23 = test: NCI cytotoxicity screen, Non-Small Cell Lung Cancer panel; format: cell-based, human; settings: Homo sapiens, single dose 10 µM, negative = lethal, read-out: Percent growth inhibition
Method: as §1

NCI-H322M = test: as above; format: cell-based, human; settings: Homo sapiens, single dose 10 µM, negative = lethal, read-out: Percent growth inhibition
Method: as §1

NCI-H226 = test: as above; format: cell-based, human; settings: Homo sapiens, single dose 10 µM, negative = lethal, read-out: Percent growth inhibition
Method: as §1

NCI-522 = test: as above; format: cell-based, human; settings: Homo sapiens; NCI-522; single dose 10 µM; negative = lethal; read-out: Percent growth inhibition
Method: as §1

OVCAR-3 = test: NCI cytotoxicity screen, Ovarian Cancer panel; format: cell-based, human; settings: Homo sapiens; OVCAR-3; single dose 10 µM; negative = lethal; read-out: Percent growth inhibition
Method: as §1

HOP-92 = test: NCI cytotoxicity screen, Non-Small Cell Lung Cancer panel; format: cell-based; settings: Homo sapiens, single dose 10 µM, negative = lethal, read-out: Percent growth inhibition
Method: as §1

A549/ATCC = test: as above; format: cell-based; settings: Homo sapiens; A549/ATCC; single dose 10 µM; negative = lethal; read-out: Percent growth inhibition
Method: as §1

NCI-H460 = test: as above; format: cell-based; settings: Homo sapiens, single dose 10 µM, negative = lethal, read-out: Percent growth inhibition
Method: as §1

EXVX = test: as above; format: cell-based; settings: Homo sapiens; EXVX; single dose 10 µM; negative = lethal; read-out: Percent growth inhibition
Method: as §1

HOP-62 = test: as above; format: cell-based; settings: Homo sapiens, single dose 10 µM, negative = lethal, read-out: Percent growth inhibition
Method: as §1

## c1cn2cc(-c3ccsc3)nc(-c3ccc4c(c3)ncn4C3CCCCC3)c2n1 [Compound 14, 8-(1-cyclohexyl-1H-benzo[d]imidazol-5-yl)-6-(thiophen-3-yl)imidazo[1,2-a]pyrazine]
RXF 393
  inhibition at 10 µM: < 1%
SN12C
  inhibition at 10 µM: 6.33%
UO-31
  inhibition at 10 µM: 23.1%
ACHN
  inhibition at 10 µM: 4.32%
A498
  inhibition at 10 µM: < 1%
CAKI-1
  inhibition at 10 µM: < 1%
HT29
  inhibition at 10 µM: 9.2%
COLO 205
  inhibition at 10 µM: < 1%
HCT-116
  inhibition at 10 µM: 15.8%
HCT-15
  inhibition at 10 µM: 18.8%
[1]
  logP: 1.63
MCF7
  inhibition at 10 µM: 12%
BT-549
  inhibition at 10 µM: 4.68%
MDA-MB-468
  inhibition at 10 µM: 0.73%
T-47D
  inhibition at 10 µM: > 50%
MDA-MB-231/ATCC
  inhibition at 10 µM: 7.65%
HS 578 T
  inhibition at 10 µM: 6.34%
NCI/ADR-RES
  inhibition at 10 µM: 4.17%
OVCAR-5
  inhibition at 10 µM: < 1%
OVCAR-8
  inhibition at 10 µM: 6.38%
SK-OV-3
  inhibition at 10 µM: < 1%
IGROV1
  inhibition at 10 µM: 19.1%
OVCAR-4
  inhibition at 10 µM: < 1%
UACC-257
  inhibition at 10 µM: < 1%
MALME-3M
  inhibition at 10 µM: 3.01%
SK-MEL-28
  inhibition at 10 µM: < 1%
SK-MEL-5
  inhibition at 10 µM: 24.8%
SK-MEL-2
  inhibition at 10 µM: 0.58%
MDA-MB-435
  inhibition at 10 µM: 6%
DU-145
  inhibition at 10 µM: < 1%
PC-3
  inhibition at 10 µM: 17.9%
M14
  inhibition at 10 µM: 3.43%
UACC-62
  inhibition at 10 µM: 18.5%
LOX IMVI
  inhibition at 10 µM: 14.5%
NCI-H23
  inhibition at 10 µM: 8.6%
NCI-H322M
  inhibition at 10 µM: 1.19%
NCI-H226
  inhibition at 10 µM: < 1%
NCI-522
  inhibition at 10 µM: 10.4%
OVCAR-3
  inhibition at 10 µM: < 1%
HOP-92
  inhibition at 10 µM: 25%
A549/ATCC
  inhibition at 10 µM: < 1%
NCI-H460
  inhibition at 10 µM: 7.12%
EXVX
  inhibition at 10 µM: < 1%
HOP-62
  inhibition at 10 µM: 7.41%
